Reference: patent US11401271B2, “Fused heterocyclic compound, pyrazole-ring-containing fused heterocyclic compound, agricultural composition containing thereof, and method of using the composition” (SOUTH CHINA AGRICULTURAL UNIVERSITY, priority 2017, dated 2022)
Like-named read-outs stand apart in the source and are kept apart here.

Key:
Type in all cases: in vivo
[1] = tested on: Plutella xylostella; assay: whole plant or invertebrate; settings: Plutella xylostella, read-out: Plutella xylostella Mortality (%) 500 ppm
Summary of the method: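 Leaf immersion feeding test: 2nd-instar larvae (about 35 per vessel, 3 replicates) kept at 28° C. on 1.0 cm cabbage discs soaked 5 s in a 500 ppm solution with 0.05% Tween-80. Mortality after 24 h of exposure, calculated relative to live larvae in the Tween-80 control.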

[2] = tested on: Apis cernan; assay: Toxicity test on adult worker bees of Apis cernan, small beaker method; settings: 500 ppm, 48 hours
Procedure: (2) Toxicity Test on Adult Worker Bees of Apis cernan.
Adult worker bees of Apis cernan having the same size were selected for test. The worker bees were collected from beekeeping boxes in the daystart of the test day and tested by using a small beaker method.
Operation process: A small amount of absorbent cotton was put into a 5 mL small beaker, 5 mL of a test liquid medicine (a concentration of 500 ppm) was dropped into the absorbent cotton, and stirred gently to make the absorbent cotton completely wet but not leached obviously, then the small beaker was put into a 500 mL large beaker, then 15 worker bees were put into the large beaker, and finally the large beaker was sealed with gauze. After treatment, the large beaker was placed in a dark room of an artificial climate box. After taking the medicine for 48 hours, a number of live and dead worker bees were investigated.

[3] = tested on: Bombyx mori L.; assay: Toxicity test on 2nd-instar larvae of Bombyx mori L., leaf immersion feeding method; settings: 1000 ppm, 24 hours
Procedure: (1) Toxicity Test on 2nd-Instar Larvae of Bombyx mori L.
Bombyx mori L. is an important economic insect sensitive to pesticides in an agricultural ecosystem, and is also one of the non-target organisms of environmental ecology listed in pesticide registration of China. The 2nd-instar larvae of Bombyx mori L. were used as test objects and tested by using a leaf immersion feeding method.
Operation process: Samples were weighed accurately, and respectively added with 200 μL of dimethyl sulfoxide to prepare 10 g/L mother liquor which was diluted into a concentration of 1000 ppm with an aqueous solution containing 0.05% of Tween-80 during the test. Young cotyledons of mulberries were collected, washed and air-dried, immersed in a liquid medicine, taken out after 5 seconds, naturally air-dryed, and then transferred into a clean vessel. About 35 2nd -instar larvae of Bombyx mori L. were put into the vessel and fed at a constant temperature of 25° C. Each concentration was repeated 3 times, and an aqueous solution containing 0.05% of Tween-80 was used as a control group. After being treated for 24 hours, a number of dead Bombyx mori L. was counted, and a mortality (%) was calculated according to a formula that mortality (%)=(number of live larvae in the control group −number of treated live larvae)/number of live larvae in the control group * 100%.

[4] = tested on: Aphis craccivora; assay: whole plant or invertebrate; settings: Aphis craccivora, 24 h, read-out: Aphis craccivora Mortality (%) 500 ppm
Summary of the method: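 Mortality scored 24 h after treatment as the reduction in live aphids versus a 0.05% Tween-80 control; three replicates, 23° C. Treatment was a 5 s immersion of wingless adults on bean sprouts in 500 ppm test solution containing 0.05% Tween-80, followed by air-drying.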

[5] = tested on: Spodoptera exigua; assay: whole plant or invertebrate; settings: Spodoptera exigua, 24 h, read-out: Spodoptera exigua Mortality (%) 500 ppm
Summary of the method: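 Leaf immersion feeding: second-instar larvae (about 35 per vessel, triplicate) kept at 28° C on discs treated with 500 ppm test solution in 0.05% Tween-80. Mortality at 24 h, calculated relative to surviving larvae in the solvent control.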

[6] = tested on: Solenopsis invicta; assay: whole plant or invertebrate; settings: Solenopsis invicta, water test tube poison-feeding
Summary of the method: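 Mortality (%) of Solenopsis invicta, computed against live counts in control tubes, was recorded 24 h and 72 h after treatment at 25 °C. Compound was offered by oral feeding in test tubes at 100 ppm, diluted from a 10 g/L DMSO stock into water with 5% honey and 0.05% Tween-80.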

[7] = 24 h, read-out: Solenopsis invicta Mortality (%) 100 ppm 24 h, 100 ppm, 24 h
[8] = 72 h, read-out: Solenopsis invicta Mortality (%) 100 ppm 72 h, 100 ppm, 72 h

N#CCC1(C(N)=O)Nc2c([S+]([O-])C(F)(F)F)c(C#N)nn2-c2c(Cl)cc(C(F)(F)F)cc21 (stereo not shown) [Compound C32]
mortality at 500 ppm [1]: 100%
Toxicity determination Apis cernan Mortality (%) [2]: 9%
Toxicity determination Bombyx mori L. Mortality (%) [3]: 6%
mortality at 500 ppm [4]: 95%
mortality at 500 ppm [5]: 90%
mortality at 100 ppm [6, 7]: 25%
mortality at 100 ppm [6, 8]: 100%

CNC(=O)C1(CC(=O)OC)Nc2c([S+]([O-])C(F)(F)F)c(C#N)nn2-c2c(Cl)cc(C(F)(F)F)cc21 (stereo not shown) [Compound C35]
mortality at 500 ppm [1]: 100%
Toxicity determination Apis cernan Mortality (%) [2]: 4%
Toxicity determination Bombyx mori L. Mortality (%) [3]: 4%
mortality at 500 ppm [4]: 100%
mortality at 500 ppm [5]: 100%
mortality at 100 ppm [6, 7]: 38%
mortality at 100 ppm [6, 8]: 100%

N#Cc1nn2c(c1[S+]([O-])C(F)(F)F)NC(CC(=O)O)(C(=O)O)c1cc(C(F)(F)F)cc(Cl)c1-2 (stereo not shown) [Compound C36]
mortality at 500 ppm [1]: 90%
Toxicity determination Apis cernan Mortality (%) [2]: 3%
Toxicity determination Bombyx mori L. Mortality (%) [3]: 2%
mortality at 500 ppm [4]: 100%
mortality at 500 ppm [5]: 90%
mortality at 100 ppm [6, 7]: 10%
mortality at 100 ppm [6, 8]: 90%

COC(=O)CC1(C(=O)OC)Nc2c([S+]([O-])C(F)(F)F)c(C#N)nn2-c2c(Cl)cc(C(F)(F)F)cc21 (stereo not shown) [Compound C37]
mortality at 500 ppm [1]: 100%
Toxicity determination Apis cernan Mortality (%) [2]: 8%
Toxicity determination Bombyx mori L. Mortality (%) [3]: 6%
mortality at 500 ppm [4]: 100%
mortality at 500 ppm [5]: 100%
mortality at 100 ppm [6, 7]: 20%
mortality at 100 ppm [6, 8]: 100%

N#Cc1nn2c(c1[S+]([O-])C(F)(F)F)NC(CC(N)=O)(C(N)=O)c1cc(C(F)(F)F)cc(Cl)c1-2 (stereo not shown) [Compound C38]
mortality at 500 ppm [1]: 100%
Toxicity determination Apis cernan Mortality (%) [2]: 0%
Toxicity determination Bombyx mori L. Mortality (%) [3]: 4%
mortality at 500 ppm [4]: 100%
mortality at 500 ppm [5]: 90%
mortality at 100 ppm [6, 7]: 25%
mortality at 100 ppm [6, 8]: 90%

COC(=O)CC1(C(=O)OC)c2cc(C(F)(F)F)cc(Cl)c2-n2nc(C#N)c([S+]([O-])C(F)(F)F)c2N1C(C)=O (stereo not shown) [Compound C40]
mortality at 500 ppm [1]: 100%
Toxicity determination Apis cernan Mortality (%) [2]: 4%
Toxicity determination Bombyx mori L. Mortality (%) [3]: 4%
mortality at 500 ppm [4]: 100%
mortality at 500 ppm [5]: 95%
mortality at 100 ppm [6, 7]: 28%
mortality at 100 ppm [6, 8]: 90%

CC(=O)c1nn2c(c1[S+](C)[O-])NC(CC#N)(C(=O)O)c1cc(C(F)(F)F)cc(Cl)c1-2 (stereo not shown) [Compound C43]
mortality at 500 ppm [1]: 86%
Toxicity determination Apis cernan Mortality (%) [2]: 4%
Toxicity determination Bombyx mori L. Mortality (%) [3]: 0%
mortality at 500 ppm [4]: 95%
mortality at 500 ppm [5]: 89%
mortality at 100 ppm [6, 7]: 18%
mortality at 100 ppm [6, 8]: 80%

CNC(=O)C1(CC#N)Nc2c([S+](C)[O-])c(C(C)=O)nn2-c2c(Cl)cc(C(F)(F)F)cc21 (stereo not shown) [Compound C45]
mortality at 500 ppm [1]: 93%
Toxicity determination Apis cernan Mortality (%) [2]: 3%
Toxicity determination Bombyx mori L. Mortality (%) [3]: 6%
mortality at 500 ppm [4]: 86%
mortality at 500 ppm [5]: 97%
mortality at 100 ppm [6, 7]: 25%
mortality at 100 ppm [6, 8]: 71%

CNC(=O)C1(CC(=O)OC)Nc2c([S+](C)[O-])c(C(C)=O)nn2-c2c(Cl)cc(C(F)(F)F)cc21 (stereo not shown) [Compound C46]
mortality at 500 ppm [1]: 89%
Toxicity determination Apis cernan Mortality (%) [2]: 3%
Toxicity determination Bombyx mori L. Mortality (%) [3]: 5%
mortality at 500 ppm [4]: 90%
mortality at 500 ppm [5]: 91%
mortality at 100 ppm [6, 7]: 21%
mortality at 100 ppm [6, 8]: 80%

C=CC1Nc2c(-c3cc(C)oc3C)c(C#N)nn2-c2c(Cl)cc(C(F)(F)F)cc21 (stereo not shown) [Compound C50]
mortality at 500 ppm [1]: 81%
Toxicity determination Apis cernan Mortality (%) [2]: 2%
Toxicity determination Bombyx mori L. Mortality (%) [3]: 5%
mortality at 500 ppm [4]: 90%
mortality at 500 ppm [5]: 86%
mortality at 100 ppm [6, 7]: 26%
mortality at 100 ppm [6, 8]: 86%
